Laboratory results reported in paper PMC4517520 (Drug Design, Development and Therapy, 2015).
Where two headings read alike, the source gives them in different places. Each block holds one molecule with its values, some of them ahead of it.

What was measured:
[1] = system: EGFR; conditions: read-out: Potency [IC50], cited from earlier work
[2] = system: HER2; conditions: read-out: Potency [IC50]; PDB 3RCD; reference or ChEMBL geometric mean; cited from earlier work
[3] = target: human EGFR cytoplasmic domain, dual T790M/L858R mutations (Homo sapiens, UniProt P00533, L858R/T790M); assay type: biochemical; conditions: in vitro
[4] = system: A431 (wild-type) cells; assay: Cell proliferation assay; assay type: cell-based; conditions: Homo sapiens, A-431, 24 h, read-out: Cellular IC50 A431 (wild-type)
[5] = system: H1975 (T790M/L858R) cells; assay: Cell proliferation assay; assay type: cell-based; conditions: Homo sapiens, NCI-H1975, 24 h, read-out: Cellular IC50 H1975 (T790M/L858R)
[6] = system: MCF-7 cells; assay: Cell proliferation assay; assay type: cell-based; conditions: Homo sapiens, MCF7, 24 h, read-out: Cellular IC50 MCF-7
[7] = system: HER4; conditions: read-out: Potency [IC50]; PDB 3BBT; reference or ChEMBL geometric mean; cited from earlier work

human EGFR cytoplasmic domain, dual T790M/L858R mutations, sequence (P00533 669-1210 T790M/L858R): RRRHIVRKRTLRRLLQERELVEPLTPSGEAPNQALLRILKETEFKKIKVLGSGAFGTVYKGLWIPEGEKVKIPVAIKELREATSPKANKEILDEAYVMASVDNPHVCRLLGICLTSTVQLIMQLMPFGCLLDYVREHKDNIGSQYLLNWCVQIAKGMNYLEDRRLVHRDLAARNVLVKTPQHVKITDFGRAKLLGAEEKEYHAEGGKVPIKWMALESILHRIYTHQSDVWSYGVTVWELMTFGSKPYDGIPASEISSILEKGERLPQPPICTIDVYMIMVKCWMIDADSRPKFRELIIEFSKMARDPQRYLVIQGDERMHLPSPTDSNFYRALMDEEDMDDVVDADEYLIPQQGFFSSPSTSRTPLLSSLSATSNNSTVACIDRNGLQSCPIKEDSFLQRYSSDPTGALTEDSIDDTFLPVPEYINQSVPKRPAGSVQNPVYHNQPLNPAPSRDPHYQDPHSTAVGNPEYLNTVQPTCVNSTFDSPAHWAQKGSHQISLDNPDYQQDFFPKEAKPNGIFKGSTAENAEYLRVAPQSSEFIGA

SMILES: CN(C)C/C=C/C(=O)Nc1cc2c(Nc3ccc(F)c(Cl)c3)ncnc2cc1O[C@H]1CCOC1 [0WM]
IC50 ([1]; PDB 4G5J, reference or ChEMBL geometric mean): 0.5 nM

SMILES: COc1cc2ncnc(Nc3ccc(F)c(Cl)c3)c2cc1NC(=O)/C=C/CN1CCCCC1 [1C9]
IC50 ([1]; PDB 4I23, reference or ChEMBL geometric mean): 8.12 nM

SMILES: CC(C)(O)CC(=O)NCCn1ccc2ncnc(Nc3ccc(Oc4cccc(C(F)(F)F)c4)c(Cl)c3)c21 [03P]
IC50 ([1]; PDB 3POZ, reference or ChEMBL geometric mean): […] | IC50 [2]: 17 nM

more potency against EGFR T790M than the two control molecules erlotinib and gefitinib [3]: at least 30 fold | IC50 [4]: 41 nM | IC50 [5]: 127 nM | IC50 [6]: 94 nM
SMILES: CC(C)(O)CC(=O)NCCc1ccc2ncnc(Nc3ccc(Oc4cccc(C(F)(F)F)c4)c(Cl)c3)c2c1 [A-10, N-(2-(4-((3-Chloro-4-(3-(trifluoromethyl)phenoxy)phenyl)amino)quinazolin-6-yl)ethyl)-3-hydroxy-3-methylbutanamide]

SMILES: CCN1CCN(Cc2ccc(-c3cc4c(N[C@H](C)c5ccccc5)ncnc4[nH]3)cc2)CC1 [AEE]
IC50 ([1]; PDB 2J6M, reference or ChEMBL geometric mean): 10.9 nM

IC50 [4]: 62 nM | IC50 [6]: > 1000 nM
SMILES: C#Cc1cccc(Nc2ncnc3cc(OCCOC)c(OCCOC)cc23)c1 [Erlotinib, erlotinib]

SMILES: COc1cc2ncnc(Nc3ccc(F)c(Cl)c3)c2cc1OCCCN1CCOCC1 [IRE]
IC50 ([1]; PDB 2ITY, reference or ChEMBL geometric mean): 53.5 nM

SMILES: CN(C)CCC(=O)Nc1cccc(-c2c(-c3ccccc3)oc3ncnc(N[C@H](CO)c4ccccc4)c23)c1 [KJ8]
IC50 ([1]; PDB 4JQ8, reference or ChEMBL geometric mean): 8 nM

SMILES: OC[C@@H](Nc1ncnc2oc(-c3ccccc3)c(-c3ccccc3)c12)c1ccccc1 [KJQ]
IC50 ([1]; PDB 4JQ7, reference or ChEMBL geometric mean): 393 nM

SMILES: CN(C)CCCC(=O)Nc1cccc(-c2c(-c3ccccc3)oc3ncnc(N[C@H](CO)c4ccccc4)c23)c1 [KJV]
IC50 ([1]; PDB 4JRV, reference or ChEMBL geometric mean): 29 nM
